# Assay results published in patent publication USRE48711E1, “Apoptosis signal-regulating kinase inhibitors” (Gilead Sciences, Inc., priority 2009, dated 2021).
# Target: ASK1 (Apoptosis Signal-Regulating Kinase 1) (Homo sapiens (Human), UniProt Q99683)
# Test: ASK1 (Apoptosis Signal-Regulating Kinase 1) TR-FRET Kinase Assay (Biochemical IC50)
# Conditions: TR-FRET, biotin-MBP substrate, 20 min pre-incubation, ATP added as 300 μM solution
# Chain of ASK1 (Apoptosis Signal-Regulating Kinase 1) (Q99683 649-946): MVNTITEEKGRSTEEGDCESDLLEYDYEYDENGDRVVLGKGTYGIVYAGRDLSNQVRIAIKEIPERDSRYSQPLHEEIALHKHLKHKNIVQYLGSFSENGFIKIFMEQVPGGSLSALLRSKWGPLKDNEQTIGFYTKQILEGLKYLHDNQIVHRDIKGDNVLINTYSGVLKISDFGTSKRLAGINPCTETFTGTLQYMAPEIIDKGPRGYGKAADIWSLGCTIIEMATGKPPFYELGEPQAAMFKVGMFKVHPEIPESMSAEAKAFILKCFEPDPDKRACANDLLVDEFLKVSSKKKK
row,IC50 [nM],SMILES
1,9,"O=C(Nc1cccc(-c2nncn2C2CC2)c1)c1cc(-n2cnc3c2CCCC3)ccn1 [Example 86, N-(3-(4-cyclopropyl-4H-1,2,4-triazol-3-yl)phenyl)-4-(4,5,6,7-tetrahydro-1H-benzo[d]imidazol-1-yl)picolinamide]"
2,69,"O=C(Nc1cccc(-c2nncn2C2CC2)c1)c1cc(-c2cnccn2)ccn1 [Example 87, N-(3-(4-cyclopropyl-4H-1,2,4-triazol-3-yl)phenyl)-4-(pyrazin-2-yl)picolinamide]"
3,35,"O=C(Nc1cccc(-c2cncn2C2CC2)c1)c1cc(-n2cnc3ccccc32)ccn1 [Example 88, 4-(1H-benzo[d]imidazol-1-yl)-N-(3-(1-cyclopropyl-1H-imidazol-5-yl)phenyl)picolinamide]"
4,26,"O=C(Nc1cccc(-c2nncn2C2CC2)c1)c1cc(-c2cncc3ccccc23)ccn1 [Example 89, N-(3-(4-cyclopropyl-4H-1,2,4-triazol-3-yl)phenyl)-4-(isoquinolin-4-yl)picolinamide]"
5,43,"O=C(Nc1cccc(-c2nncn2C2CC2)c1)c1cc(-c2ccc(F)nc2)ccn1 [Example 93, N-(3-(4-cyclopropyl-4H-1,2,4-triazol-3-yl)phenyl)-6-fluoro-3,4′-bipyridine-2′-carboxamide]"
6,8,"CCc1ccc(-c2ccnc(C(=O)Nc3cccc(-c4nncn4C4CC4)c3)c2)cn1 [Example 106, N-(3-(4-cyclopropyl-4H-1,2,4-triazol-3-yl)phenyl)-6-ethyl-3,4′-bipyridine-2′-carboxamide]"
7,31,"O=C(Nc1cccc(-c2cncn2C2CC2)c1)c1cc(-c2ccc(C3CC3)nc2)ccn1 [Example 107, 6-cyclopropyl-N-(3-(1-cyclopropyl-1H-imidazol-5-yl)phenyl)-3,4′-bipyridine-2′-carboxamide]"
8,41,"O=C(Nc1cccc(-c2cncn2C2CC2)c1)c1cc(-c2cnc3ccccc3c2)ccn1 [Example 108, N-(3-(1-cyclopropyl-1H-imidazol-5-yl)phenyl)-4-(quinolin-3-yl)picolinamide]"
9,10,"O=C(Nc1cccc(-c2nncn2C2CC2)n1)c1cc(-n2cnc(-c3ccccc3)c2)ccn1 [Example 113, N-(6-(4-cyclopropyl-4H-1,2,4-triazol-3-yl)pyridin-2-yl)-4-(4-phenyl-1H-imidazol-1-yl)picolinamide]"
10,23,"Cn1c(-c2ccnc(C(=O)Nc3cccc(-c4nncn4C4CC4)c3)c2)cnc1-c1ccccc1 [Example 116, N-(3-(4-cyclopropyl-4H-1,2,4-triazol-3-yl)phenyl)-4-(1-methyl-2-phenyl-1H-imidazol-5-yl)picolinamide]"
11,47,"O=C(Nc1cccc(-c2nncn2C2CC2)c1)c1cc(-c2cnc3scnn23)ccn1 [Example 121, N-(3-(4-cyclopropyl-4H-1,2,4-triazol-3-yl)phenyl)-4-(imidazo[2,1-b][1,3,4]thiadiazol-5-yl)picolinamide]"
12,17,"O=C(Nc1cccc(-c2nncn2C2CC2)c1)c1cc(-n2cnc(Cl)c2)ccn1 [Example 122, 4-(4-chloro-1H-imidazol-1-yl)-N-(3-(4-cyclopropyl-4H-1,2,4-triazol-3-yl)phenyl)picolinamide]"

# More lines, now with the values behind:
row,SMILES,IC50 [nM]
1,"Cc1c(-c2ccnc(C(=O)Nc3cccc(-c4nncn4C4CC4)c3)c2)cnn1C [Example 90, N-(3-(4-cyclopropyl-4H-1,2,4-triazol-3-yl)phenyl)-4-(1,5-dimethyl-1H-pyrazol-4-yl)picolinamide]",38
2,"CN(C)c1ccc(-c2ccnc(C(=O)Nc3cccc(-c4nncn4C4CC4)c3)c2)cn1 [Example 91, N-(3-(4-cyclopropyl-4H-1,2,4-triazol-3-yl)phenyl)-6-(dimethylamino)-3,4′-bipyridine-2′-carboxamide]",18
3,"O=C(Nc1cccc(-c2nncn2C2CC2)c1)c1cc(-c2cnc3[nH]ccc3c2)ccn1 [Example 92, N-(3-(4-cyclopropyl-4H-1,2,4-triazol-3-yl)phenyl)-4-(1H-pyrrolo[2,3-b]pyridin-5-yl)picolinamide]",13
4,"CC(C)Oc1ccc(-c2ccnc(C(=O)Nc3cccc(-c4nncn4C4CC4)c3)c2)cn1 [Example 94, N-(3-(4-cyclopropyl-4H-1,2,4-triazol-3-yl)phenyl)-6-isopropoxy-3,4′-bipyridine-2′-carboxamide]",61
5,"O=C(Nc1cccc(-c2nncn2C2CC2)c1)c1cc(-c2ccc(OC3CCC3)nc2)ccn1 [Example 95, 6-cyclobutoxy-N-(3-(4-cyclopropyl-4H-1,2,4-triazol-3-yl)phenyl)-3,4′-bipyridine-2′-carboxamide]",31
6,"O=C(Nc1cccc(-c2nncn2C2CC2)c1)c1cc(-c2ccc(S(=O)(=O)NC3CC3)cc2)ccn1 [Example 96, N-(3-(4-cyclopropyl-4H-1,2,4-triazol-3-yl)phenyl)-4-(4-(N-cyclopropylsulfamoyl)phenyl)picolinamide]",13
7,"NS(=O)(=O)c1ccc(-c2ccnc(C(=O)Nc3cccc(-c4nncn4C4CC4)c3)c2)cc1 [Example 97, N-(3-(4-cyclopropyl-4H-1,2,4-triazol-3-yl)phenyl)-4-(4-sulfamoylphenyl)picolinamide]",81
8,"CNS(=O)(=O)c1ccc(-c2ccnc(C(=O)Nc3cccc(-c4nncn4C4CC4)c3)c2)cc1 [Example 98, N-(3-(4-cyclopropyl-4H-1,2,4-triazol-3-yl)phenyl)-4-(4-(N-methylsulfamoyl)phenyl)picolinamide]",7
9,"CC(C)NS(=O)(=O)c1ccc(-c2ccnc(C(=O)Nc3cccc(-c4nncn4C4CC4)c3)c2)cc1 [Example 99, N-(3-(4-cyclopropyl-4H-1,2,4-triazol-3-yl)phenyl)-4-(4-(N-isopropylsulfamoyl)phenyl)picolinamide]",17
10,"O=C(Nc1cccc(-c2nncn2C2CC2)n1)c1cc(-c2ccc(C3CC3)nc2)ccn1 [Example 100, 6-cyclopropyl-N-(6-(4-cyclopropyl-4H-1,2,4-triazol-3-yl)pyridin-2-yl)-3,4′-bipyridine-2′-carboxamide]",6
11,"CS(=O)(=O)c1ccc(-c2ccnc(C(=O)Nc3cccc(-c4nncn4C4CC4)n3)c2)cc1 [Example 101, N-(6-(4-cyclopropyl-4H-1,2,4-triazol-3-yl)pyridin-2-yl)-4-(4-(methylsulfonyl)phenyl)picolinamide]",7
12,"CC(C)c1ccc(-c2ccnc(C(=O)Nc3cccc(-c4nncn4C4CC4)c3)c2)cn1 [Example 102, N-(3-(4-cyclopropyl-4H-1,2,4-triazol-3-yl)phenyl)-6-isopropyl-3,4′-bipyridine-2′-carboxamide]",9
13,"O=C(Nc1cccc(-c2nncn2C2CC2)c1)c1cc(-c2ccc(C3CCC3)nc2)ccn1 [Example 103, 6-cyclobutyl-N-(3-(4-cyclopropyl-4H-1,2,4-triazol-3-yl)phenyl)-3,4′-bipyridine-2′-carboxamide]",11
14,"O=C(Nc1cccc(-c2nncn2C2CC2)c1)c1cc(-c2ccc(OC3CC3)nc2)ccn1 [Example 104, 6-cyclopropoxy-N-(3-(4-cyclopropyl-4H-1,2,4-triazol-3-yl)phenyl)-3,4′-bipyridine-2′-carboxamide]",12
15,"O=C(Nc1cccc(-c2nncn2C2CC2)c1)c1cc(-c2ccc(N3CCNC3=O)cc2)ccn1 [Example 105, N-(3-(4-cyclopropyl-4H-1,2,4-triazol-3-yl)phenyl)-4-(4-(2-oxoimidazolidin-1-yl)phenyl)picolinamide]",15
16,"O=C(Nc1cccc(-c2nncn2C2CC2)c1)c1cc(-c2ccc(C3CCCC3)nc2)ccn1 [Example 109, 6-cyclopentyl-N-(3-(4-cyclopropyl-4H-1,2,4-triazol-3-yl)phenyl)-3,4′-bipyridine-2′-carboxamide]",21
17,"CN1CCC(c2ccc(-c3ccnc(C(=O)Nc4cccc(-c5nncn5C5CC5)c4)c3)cn2)C1=O (stereo not shown) [Example 110, N-(3-(4-cyclopropyl-4H-1,2,4-triazol-3-yl)phenyl)-6-(1-methyl-2-oxopyrrolidin-3-yl)-3,4′-bipyridine-2′-carboxamide]",8
18,"CNS(=O)(=O)c1ccc(-c2ccnc(C(=O)Nc3cccc(-c4nncn4C4CC4)n3)c2)cc1 [Example 111, N-(6-(4-cyclopropyl-4H-1,2,4-triazol-3-yl)pyridin-2-yl)-4-(4-(N-methylsulfamoyl)phenyl)picolinamide]",9
19,"O=C(Nc1cccc(-c2nncn2C2CC2)n1)c1cc(-c2cnc3ccccc3c2)ccn1 [Example 112, N-(6-(4-cyclopropyl-4H-1,2,4-triazol-3-yl)pyridin-2-yl)-4-(quinolin-3-yl)picolinamide]",14
20,"CCCc1ccc(-c2ccnc(C(=O)Nc3cccc(-c4nncn4C4CC4)c3)c2)cn1 [Example 114, N-(3-(4-cyclopropyl-4H-1,2,4-triazol-3-yl)phenyl)-6-propyl-3,4′-bipyridine-2′-carboxamide]",5
21,"CC(C)(C)Cc1ccc(-c2ccnc(C(=O)Nc3cccc(-c4nncn4C4CC4)c3)c2)cn1 [Example 115, N-(3-(4-cyclopropyl-4H-1,2,4-triazol-3-yl)phenyl)-6-neopentyl-3,4′-bipyridine-2′-carboxamide]",15
22,"CCS(=O)(=O)c1ccc(-c2ccnc(C(=O)Nc3cccc(-c4nncn4C4CC4)c3)c2)cc1 [Example 117, N-(3-(4-cyclopropyl-4H-1,2,4-triazol-3-yl)phenyl)-4-(4-(ethylsulfonyl)phenyl)picolinamide]",12
23,"CC(C)S(=O)(=O)c1ccc(-c2ccnc(C(=O)Nc3cccc(-c4nncn4C4CC4)c3)c2)cc1 [Example 118, N-(3-(4-cyclopropyl-4H-1,2,4-triazol-3-yl)phenyl)-4-(4-(isopropylsulfonyl)phenyl)picolinamide]",9
24,"CCNc1ccc(-c2ccnc(C(=O)Nc3cccc(-c4nncn4C4CC4)c3)c2)cn1 [Example 119, N-(3-(4-cyclopropyl-4H-1,2,4-triazo1-3-yl)phenyl)-6-(ethylamino)-3,4′-bipyridine-2′-carboxamide]",9
25,"O=C(Nc1cccc(-c2nncn2C2CC2)c1)c1cc(-c2ccc(NC3CC3)nc2)ccn1 [Example 120, N-(3-(4-cyclopropyl-4H-1,2,4-triazol-3-yl)phenyl)-6-(cyclopropylamino)-3,4′-bipyridine-2′-carboxamide]",6
